Experimental data from the NIST ThermoML archive (doi:10.1016/j.fluid.2005.09.006).
Numbers after ± are expanded uncertainties.

Conditions: Liquid

vapor or sublimation pressure (253.15 K) [kPa]	vapor or sublimation pressure (263.15 K) [kPa]	vapor or sublimation pressure (273.15 K) [kPa]	vapor or sublimation pressure (283.15 K) [kPa]	vapor or sublimation pressure (293.15 K) [kPa]	vapor or sublimation pressure (303.15 K) [kPa]	vapor or sublimation pressure (313.15 K) [kPa]	vapor or sublimation pressure (323.15 K) [kPa]	SMILES
244.2 ± 6.2	344.7 ± 8.7	473.9 ± 12	636.3 ± 16	836.3 ± 21	1079.6 ± 27	1369.8 ± 34	1714.5 ± 43	CCC [propane]
1964.8 ± 49	2641.8 ± 66	3478.5 ± 86	4497.8 ± 110	5723.7 ± 140	7206.2 ± 180			O=C=O [carbon dioxide]
